# PubChem BioAssay (NCI)
#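 Each compound was tested at five concentrations against cells in 96-well plates for 48 hours. GI50 marks 50% less growth. TGI: concentration producing complete growth inhibition.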
# Key:
# Experiment in all cases: inhibition of tumour cell growth, NCI panel, 48 h
# [1] = tested on: 786-0 renal
# [2] = tested on: A549 NSCLC
# [3] = tested on: ACHN renal
# [4] = tested on: CAKI-1 renal
# [5] = tested on: CCRF-CEM leukemia
# [6] = tested on: COLO 205 colon
# [7] = tested on: DU-145 prostate
# [8] = tested on: EKVX NSCLC
# [9] = tested on: HCC-2998 colon
# [10] = tested on: HCT-116 colon
# [11] = tested on: HCT-15 colon
# [12] = tested on: HOP-92 NSCLC
# [13] = tested on: HS 578T breast
# [14] = tested on: HT29 colon
# [15] = tested on: IGROV1 ovarian
# [16] = tested on: K-562 leukemia
# [17] = tested on: KM12 colon
# [18] = tested on: LOX IMVI melanoma
# [19] = tested on: M14 melanoma
# [20] = tested on: MALME-3M melanoma
# [21] = tested on: MCF7 breast
# [22] = tested on: MDA-MB-231 breast
# [23] = tested on: MDA-MB-435
# [24] = tested on: MOLT-4 leukemia
# [25] = tested on: NCI-H23 lung
# [26] = tested on: NCI-H460 lung
# [27] = tested on: NCI-H522 lung
# [28] = tested on: NCI/ADR-RES ovarian
# [29] = tested on: OVCAR-4 ovarian
# [30] = tested on: OVCAR-5 ovarian
# [31] = tested on: OVCAR-8 ovarian
# [32] = tested on: PC-3 prostate
# [33] = tested on: RPMI-8226 leukemia
# [34] = tested on: RXF 393 renal
# [35] = tested on: SF-268 CNS
# [36] = tested on: SF-295 CNS
# [37] = tested on: SK-MEL-2 melanoma
# [38] = tested on: SK-MEL-28 melanoma
# [39] = tested on: SK-MEL-5 melanoma
# [40] = tested on: SK-OV-3 ovarian
# [41] = tested on: SN12C renal
# [42] = tested on: SNB-19 CNS
# [43] = tested on: SNB-75 CNS
# [44] = tested on: SR leukemia
# [45] = tested on: SW-620 colon
# [46] = tested on: TK-10 renal
# [47] = tested on: U251 CNS
# [48] = tested on: UACC-257 melanoma
# [49] = tested on: UACC-62 melanoma
# [50] = tested on: UO-31 renal
# [51] = tested on: A498 renal
# [52] = tested on: HL-60(TB) leukemia
# [53] = tested on: HOP-62 NSCLC
# [54] = tested on: NCI-H226 lung
# [55] = tested on: OVCAR-3 ovarian
# [56] = tested on: SF-539 CNS
# [57] = tested on: T-47D breast
smiles,measurement,setting,value
C/C1=C\CC[C@@]2(C)O[C@@H]2[C@H]2OC(=O)C(C)C2C[C@H]1O (stereo not given in full),TGI,[1],> 100 µM
same,TGI,[2],> 100 µM
same,TGI,[3],> 100 µM
same,TGI,[4],> 100 µM
same,TGI,[5],> 100 µM
same,TGI,[6],> 100 µM
same,TGI,[7],> 100 µM
same,TGI,[8],> 100 µM
same,TGI,[9],> 100 µM
same,TGI,[10],> 100 µM
same,TGI,[11],> 100 µM
same,TGI,[12],> 100 µM
same,TGI,[13],> 100 µM
same,TGI,[14],> 100 µM
same,TGI,[15],> 100 µM
same,TGI,[16],> 100 µM
same,TGI,[17],> 100 µM
same,TGI,[18],> 100 µM
same,TGI,[19],> 100 µM
same,TGI,[20],> 100 µM
same,TGI,[21],> 100 µM
same,TGI,[22],> 100 µM
same,TGI,[23],> 100 µM
same,TGI,[24],> 100 µM
same,TGI,[25],> 100 µM
same,TGI,[26],> 100 µM
same,TGI,[27],> 100 µM
same,TGI,[28],> 100 µM
same,TGI,[29],> 100 µM
same,TGI,[30],> 100 µM
same,TGI,[31],> 100 µM
same,TGI,[32],> 100 µM
same,TGI,[33],> 100 µM
same,TGI,[34],> 100 µM
same,TGI,[35],> 100 µM
same,TGI,[36],> 100 µM
same,TGI,[37],> 100 µM
same,TGI,[38],> 100 µM
same,TGI,[39],> 100 µM
same,TGI,[40],> 100 µM
same,TGI,[41],> 100 µM
same,TGI,[42],> 100 µM
same,TGI,[43],> 100 µM
same,TGI,[44],> 100 µM
same,TGI,[45],> 100 µM
same,TGI,[46],> 100 µM
same,TGI,[47],> 100 µM
same,TGI,[48],> 100 µM
same,TGI,[49],> 100 µM
same,TGI,[50],> 100 µM
COC1CC2CCC(C)[C@](O)(O2)C(=O)C(=O)N2CCCCC2C(=O)OC(C(C)CC2CCC(O)C(OC)C2)CC(=O)C(C)C=C(C)C(OC(=O)CN(C)C)C(OC)C(=O)C(C)CC(C)/C=C/C=C/C=C\1C (stereo not given in full),TGI,[1],24.7 µM
same,TGI,[51],11.9 µM
same,TGI,[2],26.9 µM
same,TGI,[3],19.6 µM
same,TGI,[5],5.42 µM
same,TGI,[6],25.2 µM
same,TGI,[7],14.5 µM
same,TGI,[8],20.3 µM
same,TGI,[10],22.2 µM
same,TGI,[11],22.6 µM
same,TGI,[52],6.38 µM
same,TGI,[53],19.3 µM
same,TGI,[12],21.6 µM
same,TGI,[13],16.9 µM
same,TGI,[14],20.2 µM
same,TGI,[15],9.88 µM
same,TGI,[16],13.6 µM
same,TGI,[17],23.1 µM
same,TGI,[18],16.7 µM
same,TGI,[19],23 µM
same,TGI,[20],20.4 µM
same,TGI,[21],17.6 µM
same,TGI,[22],20.4 µM
same,TGI,[23],19.2 µM
same,TGI,[54],22.3 µM
same,TGI,[25],24.3 µM
same,TGI,[26],21.7 µM
same,TGI,[27],22.6 µM
same,TGI,[55],22 µM
same,TGI,[30],26.4 µM
same,TGI,[31],62.5 µM
same,TGI,[32],21.2 µM
same,TGI,[34],15.5 µM
same,TGI,[35],14.8 µM
same,TGI,[36],20.7 µM
same,TGI,[56],12.7 µM
same,TGI,[37],15.1 µM
same,TGI,[38],20.7 µM
same,TGI,[39],19.8 µM
same,TGI,[40],20 µM
same,TGI,[41],18.7 µM
same,TGI,[42],15.9 µM
same,TGI,[45],21.9 µM
same,TGI,[57],25 µM
same,TGI,[46],23.8 µM
same,TGI,[47],18.2 µM
same,TGI,[48],24.1 µM
same,TGI,[49],20.2 µM
same,TGI,[50],5.27 µM
C[C@]12CCC(=O)C=C1CC[C@@H]1[C@@H]2CC[C@]2(C)C(=O)/C(=C/c3cccc(OCCN4CCOCC4)c3)C[C@@H]12,GI50,[1],12.8 µM
same,TGI,[1],> 100 µM
same,GI50,[51],18.5 µM
same,TGI,[51],36.1 µM
same,GI50,[2],7.17 µM
same,TGI,[2],89.5 µM
same,GI50,[3],18.7 µM
same,TGI,[3],> 100 µM
same,GI50,[4],11.9 µM
same,TGI,[4],48.3 µM
same,GI50,[5],4.49 µM
same,TGI,[5],28.6 µM
same,GI50,[6],5.21 µM
same,TGI,[6],25.5 µM
same,GI50,[7],17.9 µM
same,TGI,[7],51.5 µM
same,GI50,[8],5.57 µM
same,TGI,[8],42.3 µM
same,GI50,[10],3.14 µM
same,TGI,[10],13.4 µM
same,GI50,[11],5.29 µM
same,TGI,[11],42.1 µM
same,GI50,[52],2.13 µM
same,TGI,[52],5.82 µM
same,GI50,[53],12.6 µM
same,TGI,[53],29 µM
same,GI50,[12],10.2 µM
same,TGI,[12],31.7 µM
same,GI50,[13],16.6 µM
same,TGI,[13],66.7 µM
same,GI50,[14],2.87 µM
same,TGI,[14],16.2 µM
same,GI50,[15],23.5 µM
same,TGI,[15],95.9 µM
same,GI50,[16],3.51 µM
same,TGI,[16],15.5 µM
same,GI50,[17],9.02 µM
same,TGI,[17],> 100 µM
same,GI50,[18],9.44 µM
same,TGI,[18],26.6 µM
same,GI50,[19],8.9 µM
same,TGI,[19],21.5 µM
same,GI50,[20],14.7 µM
same,TGI,[20],36 µM
same,GI50,[21],9.11 µM
same,TGI,[21],71.7 µM
same,GI50,[22],11.6 µM
same,TGI,[22],42.3 µM
same,GI50,[23],4.92 µM
same,TGI,[23],21.8 µM
same,GI50,[54],14.2 µM
same,TGI,[54],> 100 µM
same,GI50,[25],3.79 µM
same,TGI,[25],20.6 µM
same,GI50,[26],7.11 µM
same,TGI,[26],30.1 µM
same,GI50,[27],8 µM
same,TGI,[27],26.4 µM
same,GI50,[55],3.91 µM
same,TGI,[55],16 µM
same,GI50,[29],3.01 µM
same,TGI,[29],> 100 µM
same,GI50,[30],13.4 µM
same,TGI,[30],34 µM
same,GI50,[31],6.28 µM
same,TGI,[31],> 100 µM
same,GI50,[32],3.15 µM
same,TGI,[32],29.2 µM
same,GI50,[34],5.62 µM
same,TGI,[34],20.9 µM
same,GI50,[35],13.6 µM
same,TGI,[35],76.6 µM
same,GI50,[36],3.74 µM
same,TGI,[36],16.6 µM
same,GI50,[56],10.5 µM
same,TGI,[56],23.7 µM
same,GI50,[37],16.1 µM
same,TGI,[37],34.4 µM
same,GI50,[38],11.9 µM
same,TGI,[38],29.8 µM
same,GI50,[39],4.17 µM
same,TGI,[39],15.7 µM
same,GI50,[40],11.7 µM
same,TGI,[40],> 100 µM
same,GI50,[41],16.7 µM
same,TGI,[41],63.6 µM
same,GI50,[42],15.8 µM
same,TGI,[42],> 100 µM
same,GI50,[43],12 µM
same,TGI,[43],31.9 µM
same,GI50,[44],4.72 µM
same,TGI,[44],22 µM
same,GI50,[45],8.45 µM
same,TGI,[45],27.7 µM
same,GI50,[57],2.9 µM
same,TGI,[57],> 100 µM
same,GI50,[46],17.7 µM
same,TGI,[46],> 100 µM
same,GI50,[47],8.5 µM
same,TGI,[47],24.9 µM
same,GI50,[48],6.13 µM
same,TGI,[48],19 µM
same,GI50,[49],11 µM
same,TGI,[49],27.5 µM
same,GI50,[50],12.1 µM
same,TGI,[50],30 µM
